The test system of the assay is SK-N-SH human neuroblastoma cells. Kind of assay: Serum Deprivation/JC-1 Mitochondrial Membrane Potential (MMP) Assay. It counts as cell-based. As to conditions: Homo sapiens, SK-N-SH; for Emax: percent maximal JC-1 ratio normalized to peak value for 10 μM dimebolin, read-out: JC-1 max %; for EC50: serum deprivation ~18 hours, JC-1 ratio normalized to peak value for 10 μM dimebolin. The method, then:
Tissue Culture: SK-N-SH human neuroblastoma cells obtained from American Type Culture Collection (Rockville, Md.) were maintained in the log phase of growth in Minimal Essential Media (MEM), 10% heat inactivated fetal calf serum and 100 units/mL antibiotic-antimycotic (AA). Cells were cultured and maintained in a humidified incubator at 37° C. under 5% CO2 and 95% air. Cells were trypsinized (0.25%) and subcultured every 3 days and used from 15-18 passages. All cell culture supplies were obtained from Invitrogen (Carlsbad, Calif.).
Serum Deprivation/JC-1 Mitochondrial Membrane Potential (MMP) Assay.
SK-N-SH cells were plated 2-3 days in advance at a concentration of 50,000 cells/well onto collagen coated black-walled 96 well plates (Becton-Dickinson, Bedford, Mass.) in a total volume of 200 μL. On day of experimental treatment, the media containing serum was aspirated from each well and rinsed once with MEM/1% AA without serum. The cells then were incubated overnight in 100 μL of MEM/1% AA (no serum) with and without dimebolin or novel chemical entities overnight for ˜18 hours. The following day, JC-1 dye (5,5′,6,6′-tetrachloro-1,1′,3,3′-tetraethylbenzimidazolcarbocyanide) was diluted 1:10 into MEM media according to the JC-1 Mitochondrial Membrane Potential Assay Kit: (Cayman Chemical Company, Ann Arbor, Mich.) and then 10 μL of the JC-1 dye solution was added to each well. The plates were centrifuged for 5 minutes at 400×g at room temperature followed by 40 minute incubation at 37° C. The plates were washed twice with 200 μL of provided Assay Buffer followed an addition of 100 μL of Assay Buffer to each well. The plates were read with an excitation and emission of 560 nm and 595 nM for red fluorescence and with an excitation and emission of […] and 535 nM for green fluorescence to determine the final JC-1 value taking the red to green fluorescence ratio. This assay is based on change in mitochondrial membrane potential (MMP) using this lipophilic cationic dye, JC-1, by monitoring the changes in the ratio of red to green fluorescence as the MMP depolarizes. This change in MMP reflects the health of the cell with healthy, viable cells have a high JC-1 ratio and high MMP whereas apoptotic, unhealthy cells have a low JC-1 ratio or low MMP.
For the ability of compounds to reverse the stress due to serum deprivation and increase the JC-1 ratio, the percent maximal intensity in JC-1 ratio was normalized to that induced by the peak value for 10 μM dimebolin and plotted against the compound concentration to calculate EC50 values and to control for plate-to-plate variability. Concentration-response data were analyzed using GraphPad Prism (San Diego, Calif.); the EC50 values were derived from a single curve fit to the mean data of n=2-3, in duplicates.
All compounds were dissolved in dimethyl sulfoxide at 10 mM stock solutions and tested at a concentration that the dimethyl sulfoxide levels never exceeded 1%.

Some results are limits rather than exact numbers.

In general, EC50 refers to the midpoint of the concentration-response curve. With `C(=C\c1cccc2c3c([nH]c12)C1CCN(CC1)C3)/c1cncnc1` (single isomer, unassigned) [Example 29, 7-[(E)-2-(pyrimidin-5-yl)vinyl]-3,4,5,6-tetrahydro-1H-2,5-ethanoazepino[4,3-b]indole], the Emax came out at 54% and the EC50 worked out at 5.33 µM.
On to `C(=C/c1cccc2c3c([nH]c12)C1CCN(CC1)C3)/c1cncnc1` (single isomer, unassigned) [Example 30, 7-[(Z)-2-(pyrimidin-5-yl)vinyl]-3,4,5,6-tetrahydro-1H-2,5-ethanoazepino[4,3-b]indole], for which the Emax was found to be 29% and the concentration for a half-maximal effect (EC50) was above 30 µM.
Taken in the same sequence, the figures for `Cc1ccc(CCc2cccc3c4c([nH]c23)C2CCN(CC2)C4)cn1` [Example 2, 7-[2-(6-methylpyridin-3-yl)ethyl]-3,4,5,6-tetrahydro-1H-2,5-ethanoazepino[4,3-b]indole] were 170% and 5.22 µM.
Take `Clc1ccc(/C=C/c2cccc3c4c([nH]c23)C2CCN(CC2)C4)cc1` [Example 4, 7-[(E)-2-(4-chlorophenyl)vinyl]-3,4,5,6-tetrahydro-1H-2,5-ethanoazepino[4,3-b]indole]: the Emax turned out to be 123% and the half-maximal effective concentration (EC50) was determined as 4.09 µM.
Turning to `C(=C\c1cccc2c3c([nH]c12)C1CCN(CC1)C3)/CCCc1ccccc1` [Example 5, 7-[(1E)-5-phenylpent-1-enyl]-3,4,5,6-tetrahydro-1H-2,5-ethanoazepino[4,3-b]indole], the Emax was 58% and the EC50 worked out at 5.27 µM.
In the case of `C(=C\c1cccc2c3c([nH]c12)C1CCN(CC1)C3)/c1ccsc1` [Example 6, 7-[(E)-2-thien-3-ylvinyl]-3,4,5,6-tetrahydro-1H-2,5-ethanoazepino[4,3-b]indole], the Emax turned out to be 67% and the EC50 is 6.62 µM.
Taken in the same sequence, the figures for `c1ccc(CCCCCc2cccc3c4c([nH]c23)C2CCN(CC2)C4)cc1` [Example 7, 7-(5-phenylpentyl)-3,4,5,6-tetrahydro-1H-2,5-ethanoazepino[4,3-b]indole] were 62% and 1.43 µM.
As to `Cc1ccc(CCc2ccc3[nH]c4c(c3c2)CN2CCC4CC2)cn1` [Example 9, 9-[2-(6-methylpyridin-3-yl)ethyl]-3,4,5,6-tetrahydro-1H-2,5-ethanoazepino[4,3-b]indole], the Emax turned out to be 110% and the EC50 stood at 3.94 µM.
`Fc1ccc(/C=C/c2cccc3c4c([nH]c23)C2CCN(CC2)C4)cc1` [Example 10, 7-[(E)-2-(4-fluorophenyl)vinyl]-3,4,5,6-tetrahydro-1H-2,5-ethanoazepino[4,3-b]indole]: the Emax was determined as 84% and the EC50 was found to be 4.74 µM.
For `C(=C\c1cccc2c3c([nH]c12)C1CCN(CC1)C3)/c1ccncc1` [Example 11, 7-[(E)-2-pyridin-4-ylvinyl]-3,4,5,6-tetrahydro-1H-2,5-ethanoazepino[4,3-b]indole], the Emax was 171% and the EC50 came to 6.73 µM.
As for `C(=C\c1cccc2c3c([nH]c12)C1CCN(CC1)C3)/c1ccccn1` [Example 12, 7-[(E)-2-pyridin-2-ylvinyl]-3,4,5,6-tetrahydro-1H-2,5-ethanoazepino[4,3-b]indole], the Emax is 192% and the EC50 is 3.56 µM.
Regarding `C(#Cc1cccc2c3c([nH]c12)C1CCN(CC1)C3)c1cccnc1` [Example 13, 7-(pyridin-3-ylethynyl)-3,4,5,6-tetrahydro-1H-2,5-ethanoazepino[4,3-b]indole], the Emax stood at 142% and the EC50 came to 5.17 µM.
Taken in the same sequence, the figures for `Fc1ccc(/C=C/c2cccc3c4c([nH]c23)C2CCN(CC2)C4)c(F)c1` [Example 14, 7-[(E)-2-(2,4-difluorophenyl)vinyl]-3,4,5,6-tetrahydro-1H-2,5-ethanoazepino[4,3-b]indole] were 39% and above 30 µM.
Take `Fc1cccc(/C=C/c2cccc3c4c([nH]c23)C2CCN(CC2)C4)c1` [Example 15, 7-[(E)-2-(3-fluorophenyl)vinyl]-3,4,5,6-tetrahydro-1H-2,5-ethanoazepino[4,3-b]indole]: the Emax worked out at 44% and the EC50 was above 30 µM.
For `Fc1cccc(CCc2cccc3c4c([nH]c23)C2CCN(CC2)C4)c1` [Example 16, 7-[2-(3-fluorophenyl)ethyl]-3,4,5,6-tetrahydro-1H-2,5-ethanoazepino[4,3-b]indole], the Emax was 49% and the EC50 was above 30 µM.
As to `Cc1ccc(/C=C/c2cccc3[nH]c4c(c23)CN2CCC4CC2)cn1` [Example 18, 10-[(E)-2-(6-methylpyridin-3-yl)vinyl]-3,4,5,6-tetrahydro-1H-2,5-ethanoazepino[4,3-b]indole], the Emax was 173% and the EC50 was determined as 3.1 µM.
With `C(=C\c1cccc2c3c([nH]c12)C1CCN(CC1)C3)/c1ccccc1` [Example 19, 7-[(E)-2-phenylvinyl]-3,4,5,6-tetrahydro-1H-2,5-ethanoazepino[4,3-b]indole], the Emax stood at 64% and the EC50 came out at 3.52 µM.
As to `FC(F)(F)Oc1ccc(C#Cc2cccc3c4c([nH]c23)C2CCN(CC2)C4)cc1` [Example 20, 7-{[4-(trifluoromethoxy)phenyl]ethynyl}-3,4,5,6-tetrahydro-1H-2,5-ethanoazepino[4,3-b]indole], the Emax amounted to 47% and the EC50 was above 30 µM.
Taken in the same sequence, the figures for `C(#Cc1cccc2c3c([nH]c12)C1CCN(CC1)C3)c1ccncc1` [Example 21, 7-(pyridin-4-ylethynyl)-3,4,5,6-tetrahydro-1H-2,5-ethanoazepino[4,3-b]indole] were 104% and 3.69 µM.
Taken in the same sequence, the figures for `Cc1ccc(C#Cc2ccc3c4c([nH]c3c2)C2CCN(CC2)C4)cn1` [Example 22, 8-[(6-methylpyridin-3-yl)ethynyl]-3,4,5,6-tetrahydro-1H-2,5-ethanoazepino[4,3-b]indole] were 185% and 8.66 µM.
For the compound `Cc1ccc(C#Cc2cccc3[nH]c4c(c23)CN2CCC4CC2)cn1` [Example 23, 10-[(6-methylpyridin-3-yl)ethynyl]-3,4,5,6-tetrahydro-1H-2,5-ethanoazepino[4,3-b]indole], the Emax is 140% and the concentration for a half-maximal effect (EC50) stood at 7.27 µM.
Take `Cc1ccc(C#Cc2cc(F)cc3c4c([nH]c23)C2CCN(CC2)C4)cn1` [Example 24, 9-fluoro-7-[(6-methylpyridin-3-yl)ethynyl]-3,4,5,6-tetrahydro-1H-2,5-ethanoazepino[4,3-b]indole]: the Emax came to 156% and the EC50 came to 5.38 µM.
On to `Cc1ccc(/C=C/c2cc(F)cc3c4c([nH]c23)C2CCN(CC2)C4)cn1` [Example 25, 9-fluoro-7-[(E)-2-(6-methylpyridin-3-yl)vinyl]-3,4,5,6-tetrahydro-1H-2,5-ethanoazepino[4,3-b]indole], for which the Emax turned out to be 127% and the EC50 worked out at 3.42 µM.
`c1ccc(COc2cccc3c4c([nH]c23)C2CCN(CC2)C4)cc1` [Example 26, 7-(benzyloxy)-3,4,5,6-tetrahydro-1H-2,5-ethanoazepino[4,3-b]indole]: the Emax stood at 494% and the EC50 turned out to be 9.81 µM.

The values are drawn from patent US8524703B2, “Bridgehead amine ring-fused indoles and indolines” (AbbVie Inc., priority 2009, dated 2013).
